Results on one molecule are retold here after patent publication US20120277368A1, “AQUEOUS DISPERSION PRESSURE-SENSITIVE ADHESIVE COMPOSITION AND PRESSURE-SENSITIVE ADHESIVE SHEET” (NITTO DENKO CORPORATION, priority 2011, published 2012).

The series is described as follows: Solubility in water (25° C.) of crosslinking agent. In kind it is physicochemical. On the procedure: Furthermore, the compound (B) is a water-soluble compound. […] (parts by weight of the compound capable of being dissolved per 100 parts by weight of water) is 1 g or more (1 g/100 g or more), preferably 10 g or more (10 g/100 g or more), and more preferably 30 g or more (30 g/100 g or more). The solubility of the compound (B) in water can be measured, for example, as follows.
Water (25° C.) and a compound (B), having the same weight, are mixed by using a stirrer under the conditions of a rotation speed of 300 rpm and 10 minutes, and the mixture is separated into an aqueous phase and an oil phase by centrifugation. The aqueous phase is then collected and dried at 120° C. for 1 hour, and the nonvolatile content (parts by weight of the nonvolatile component per 100 parts by weight of water) in the aqueous phase is determined from the weight loss on drying.

Regarding `C1OC1CN(CC1CO1)CC1CO1` (stereo not shown) [N,N,N-tri(2,3-epoxypropyl)amine], the “solubility in water (25° C.)” value is listed as 100 g/100 g.
